Results taken from patent US11014876B2, “Polyamine sulfonamides and uses thereof” (University of Florida Research Foundation, Inc., priority 2015, dated 2021).

Assays:
[1] = system: KG-1 cell lines (human acute myeloid leukemia cells); test: AML cell (KG1) toxicity in AML-BMEC co-culture high-throughput screening assay; assay type: cell-based; details: percent toxicity to KG-1 cells normalized to DMF
Method: FIG. 4. Schematic of high throughput screening assay. AML cells are cultured on bone marrow derived endothelial cells. After 24 hours of exposure to compound treatment, the AML cells and endothelial cells are analyzed for viability using flow cytometry for 7-AAD and annexin. The phase contrast micrographs in the bottom portion of this figure are representative of untreated control and drug treated conditions. In the control situation, spindle shaped endothelial cells appear under the round shaped AML cells. In the drug treated conditions, some compounds disrupt the spindle shaped endothelial cells and lead to their detachment and death. […] This is optimal because of the high toxicity to the malignant cells and low toxicity to stromal cells. Stromal cell viability represents safety.
(§1) The values given for percent toxicity to KG-1 cells is normalized to DMF. To compare the average AML-LSC toxicity vs. AML total toxicity, fresh human primary leukemia bone marrow mononuclear cells were treated with single doses of compounds, 2470-23 and 2470-51, at a single time point, and the killing of the AML leukemia stem cell (LSC) population versus the total AML cell population was quantified (FIG. 1). […] Next, AML-LSC toxicity versus T lymphocyte (Jurkat) toxicity was investigated. […] The single-dose treatments of 2470-23 and 2470-51 on normal healthy blood stem cells (sourced from fresh umbilical cord blood) versus AML LSC were also compared.

[2] = system: AML leukemia stem cell (LSC) population (CD34+CD38-CD123+); test: AML-LSC toxicity vs. AML total toxicity in fresh primary leukemia bone marrow mononuclear cells; assay type: cell-based, human; details: for killing of AML LSC population versus total AML cell population: single dose, single time point, FIG. 1; for depletion of leukemia stem cells: single-dose treatment, FIG. 3
Method: FIG. 1. Comparing average AML-LSC toxicity vs. AML total toxicity. Fresh human primary leukemia bone marrow mononuclear cells were treated with single doses of compounds 2470-23 and 2470-51 at a single time point and the killing of the leukemia stem cell (LSC) population (defined as CD34+CD38-CD123+) was quantified versus the total AML cell population.
as §1

[3] = system: lymphoid (CD4+ Jurkat) versus myeloid (AML LSC) leukemia cells; test: AML-LSC toxicity vs. Jurkat toxicity; assay type: cell-based, human; details: single-dose treatment; FIG. 2
Method: FIG. 2. Comparison of average AML-LSC toxicity vs. Jurkat toxicity.
as §1

[4] = system: normal healthy blood stem cells (fresh umbilical cord blood); test: Cord blood stem cell toxicity; assay type: cell-based, human; details: single-dose treatment; FIG. 3
Method: FIG. 3. Comparison of average AML-LSC toxicity vs. cord blood stem cell toxicity. The single-dose treatments of 2470-23 and 2470-51 on normal healthy blood stem cells (sourced from fresh umbilical cord blood) and AML LSC were compared.
as §1

[5] = system: Primary human AML specimens (824, 872, 874); test: Viability of primary human AML specimens; assay type: cell-based; details: 24 hours at 50 ng/mL; P<0.05; FIG. 5A
[6] = system: bone marrow cells from healthy adults; test: Viability of bone marrow cells from healthy adults; assay type: cell-based, human; details: FIG. 5B
alpha-enolase = molecular target: T1, alpha-enolase (Homo sapiens, UniProt P06733); test: Proteomic target identification (pronase protection, MS/MS); assay type: binding; details: FIG. 7A
T1 construct: endogenous in cells; host or cells: KG-1, primary AML cells (816, LPP4), CD34+ cells; lysates
T1 sequence (P06733 whole entry): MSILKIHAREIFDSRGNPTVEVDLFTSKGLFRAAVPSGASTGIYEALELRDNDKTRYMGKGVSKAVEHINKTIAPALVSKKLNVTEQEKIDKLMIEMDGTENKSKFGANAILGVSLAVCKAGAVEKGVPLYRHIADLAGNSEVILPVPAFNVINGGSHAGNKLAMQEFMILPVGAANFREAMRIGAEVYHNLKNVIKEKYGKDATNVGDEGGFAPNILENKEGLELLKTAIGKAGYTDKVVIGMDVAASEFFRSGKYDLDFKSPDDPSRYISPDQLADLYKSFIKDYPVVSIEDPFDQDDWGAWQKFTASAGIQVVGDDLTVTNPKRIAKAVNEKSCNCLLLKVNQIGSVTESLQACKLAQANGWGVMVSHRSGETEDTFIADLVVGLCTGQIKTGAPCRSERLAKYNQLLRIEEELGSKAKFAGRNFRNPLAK
Method: FIG. 6. This schematic illustrates the proteomics work flow in identifying protein targets for the compounds. AML cells (KG-1, AML 1:816, AML 2:LPP4) and health hematopoietic stem/progenitor cells (CD34+) were lysed and then mixed with either vehicle or a compound (e.g., 2470-51). Following compound-protein binding, pronase was used to cleave the proteins. Where the compound bound to proteins, this site was protected from pronase digestion. The peptides were then analyzed via gel-based target identification and label-free mass spectrometry.

enolase [7] = test: Enolase protein expression in AML cells; assay type: cell-based, human; details: FIG. 8A
Excerpt: (§2) FIG. 8A. Enolase protein expression. […] Thus, enolase correlates with malignant transformation, but is not changed by applying compounds of the present invention. FIG. 8B. Effect of compounds on enolase enzyme activity.

enolase [8] = molecular target: enolase (Homo sapiens, UniProt P06733); test: Enolase enzyme activity; assay type: biochemical; details: FIG. 8B
Sequence of enolase (Homo sapiens, UniProt P06733) (P06733 whole entry): as above
Excerpt: as §2

primary human AML cells = test: AML engraftment in NRGS mice injected with primary human AML cells; assay type: in vivo; details: 20 mg/kg IP TIW, two-week treatment, FIG. 9
Method: FIG. 9. […] Immunocompromised NRGS (NOD.CG-Rag1^tm1MomIl2rg^tm1Wjl (CMV-IL3, CSF2, KITLG) 1Eav/J) mice were given sub-lethal irradiation (200 cGy), followed by tail vein injection of primary human AML cells. At the end of four week, the animals were randomized into two-week treatment groups: vehicle-treated (PBS treatment control), cytarabine-treated 100 mg/kg IP TIW (positive treatment control), and 2470-51 20 mg/kg IP TIW. Bone marrows were examined for the presence of human CD45+ (green) and DAPI).

Aqueous solubility = assay type: physicochemical; details: aqueous medium
[9] = Microsomal stability, mouse; assay type: in vitro ADME; details: microsomes, read-out: Microsomal Stability, t1/2
[10] = Microsomal stability, rat; assay type: in vitro ADME; details: microsomes, read-out: Microsomal Stability, t1/2
[11] = Microsomal stability, human; assay type: in vitro ADME; details: microsomes, read-out: Microsomal Stability, t1/2
Human plasma half-life = assay type: in vitro ADME
CYP450 2C9 = CYP450 2C9 (Homo sapiens, UniProt P11712); test: CYP450 inhibition 2C9; assay type: in vitro ADME
Sequence of CYP450 2C9 (P11712 whole entry): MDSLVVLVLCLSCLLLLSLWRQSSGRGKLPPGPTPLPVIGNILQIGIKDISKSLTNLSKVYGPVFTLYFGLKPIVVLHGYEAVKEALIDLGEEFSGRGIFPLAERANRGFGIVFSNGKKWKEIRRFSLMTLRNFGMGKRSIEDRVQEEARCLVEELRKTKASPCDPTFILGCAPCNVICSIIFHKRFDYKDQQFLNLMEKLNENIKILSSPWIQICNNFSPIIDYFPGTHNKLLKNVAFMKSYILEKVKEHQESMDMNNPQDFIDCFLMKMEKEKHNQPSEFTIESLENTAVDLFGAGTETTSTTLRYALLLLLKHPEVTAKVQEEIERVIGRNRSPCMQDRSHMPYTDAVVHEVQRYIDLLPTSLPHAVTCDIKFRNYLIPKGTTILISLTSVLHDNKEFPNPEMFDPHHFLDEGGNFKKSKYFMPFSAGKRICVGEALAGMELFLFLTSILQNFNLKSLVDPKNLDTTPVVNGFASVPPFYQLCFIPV

CYP450 2D6 = CYP450 2D6 (Homo sapiens, UniProt P10635); test: CYP450 inhibition 2D6; assay type: in vitro ADME
Sequence of CYP450 2D6 (P10635 whole entry): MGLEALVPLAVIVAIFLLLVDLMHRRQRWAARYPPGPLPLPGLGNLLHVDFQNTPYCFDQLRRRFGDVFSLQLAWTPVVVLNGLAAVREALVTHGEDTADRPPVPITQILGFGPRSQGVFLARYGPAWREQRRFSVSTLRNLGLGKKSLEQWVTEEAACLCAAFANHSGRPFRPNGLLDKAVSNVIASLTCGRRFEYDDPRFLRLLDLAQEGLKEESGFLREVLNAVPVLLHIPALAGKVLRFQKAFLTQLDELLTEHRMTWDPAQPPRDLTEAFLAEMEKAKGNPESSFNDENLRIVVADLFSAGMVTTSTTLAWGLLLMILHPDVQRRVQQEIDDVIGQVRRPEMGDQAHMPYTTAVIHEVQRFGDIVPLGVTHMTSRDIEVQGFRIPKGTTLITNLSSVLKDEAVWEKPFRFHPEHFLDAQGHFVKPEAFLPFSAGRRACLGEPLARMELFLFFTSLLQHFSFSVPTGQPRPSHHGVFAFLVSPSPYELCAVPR

CYP450 3A4 = CYP450 3A4 (Homo sapiens, UniProt P08684); test: CYP450 inhibition 3A4; assay type: in vitro ADME
Sequence of CYP450 3A4 (P08684 whole entry): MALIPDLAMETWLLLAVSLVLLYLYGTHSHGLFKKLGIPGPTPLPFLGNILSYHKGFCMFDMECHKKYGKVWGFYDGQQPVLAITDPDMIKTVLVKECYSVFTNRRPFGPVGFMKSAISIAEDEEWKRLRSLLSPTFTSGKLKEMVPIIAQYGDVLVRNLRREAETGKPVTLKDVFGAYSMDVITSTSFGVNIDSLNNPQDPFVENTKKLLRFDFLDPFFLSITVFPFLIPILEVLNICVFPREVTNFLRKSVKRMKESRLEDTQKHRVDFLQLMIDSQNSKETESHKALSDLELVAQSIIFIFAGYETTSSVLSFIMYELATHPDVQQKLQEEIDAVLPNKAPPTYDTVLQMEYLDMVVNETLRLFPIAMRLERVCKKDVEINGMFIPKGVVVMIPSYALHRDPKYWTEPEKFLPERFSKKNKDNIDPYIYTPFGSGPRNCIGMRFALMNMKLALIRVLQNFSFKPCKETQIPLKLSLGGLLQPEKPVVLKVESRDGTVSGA

Plasma protein binding = assay type: in vitro ADME
PAMPA = assay type: in vitro ADME

With CC(C)[C@@H](CN)NC[C@H](C)NS(=O)(=O)c1ccc(C(C)(C)C)cc1 [Compound 2470-15] the “KG1 toxicity (50 μg/mL)” value [1] was 38.4%.

In the case of CC(C)[C@@H](CN)NC[C@@H](NS(=O)(=O)c1ccc(I)cc1)C(C)C [Compound 2470-23], the “KG1 toxicity (50 μg/mL)” value [1] is reported as 45.9%, the “killing of AML LSC population versus total AML cell population” value [2] is reported as “selectively kills the AML LSC fraction” and the “depletion of leukemia stem cells” value [2] is reported as “do deplete the leukemia stem cells”. The “AML-LSC toxicity vs. Jurkat toxicity” value [3] was “specificity of these compounds for AML” and the “depletion of healthy cord blood stem cells” value [4] was “do not deplete healthy stem cells”.

In the case of CC(C)C[C@H](CN)NC[C@H](CCO)NS(=O)(=O)c1ccc2ccccc2c1 [Compound 2470-40], the “KG1 toxicity (50 μg/mL)” value [1] is reported as 37.4%.

For CC(C)[C@H](CN)NC[C@H](C)NS(=O)(=O)c1ccc2ccccc2c1 [Compound 2470-49], the “KG1 toxicity (50 μg/mL)” value [1] was 46.7%.

In the case of CC(C)[C@H](CN)NC[C@H](C)NS(=O)(=O)c1ccc(C(C)(C)C)cc1 [Compound 2470-51], the “KG1 toxicity (50 μg/mL)” value [1] is reported as 93.2%, the “killing of AML LSC population versus total AML cell population” value [2] is reported as “selectively kills the AML LSC fraction” and the “depletion of leukemia stem cells” value [2] is reported as “do deplete the leukemia stem cells”. The “AML-LSC toxicity vs. Jurkat toxicity” value [3] was “specificity of these compounds for AML”, the “depletion of healthy cord blood stem cells” value [4] was “do not deplete healthy stem cells” and the “AML cell viability compared to vehicle-treated controls” value [5] was “significantly reduced AML cell viability”. For the same compound, the “cell viability of healthy adult bone marrow cells compared to vehicle control” value [6] was “did not reduce cell viability”, the “binding to alpha-enolase peptide (MS/MS)” value (alpha-enolase) was “covalently bound” and the “enolase protein expression relative to vehicle” value (enolase [7]) was “did not change protein expression”. The enolase enzymatic activity (enolase [8]) was “reduced in a dose-dependent fashion”, the “AML engraftment (human CD45+ in bone marrow)” value (primary human AML cells) was “significantly reduced AML engraftment” and the solubility (Aqueous solubility) was greater than 100 µM. The half-life [9] was 8 min, the half-life [10] was 9 min and the half-life [11] was 33 min. It also gave a half-life (Human plasma half-life) greater than 200 min, an IC50 (CYP450 2C9) greater than 20 µM and an IC50 (CYP450 2D6) of 10.8 µM. The IC50 (CYP450 3A4) was greater than 20 µM, the fraction unbound (Plasma protein binding) was 0.195 and the PAMPA (PAMPA) was 1 ×10⁻⁶ cm/s. For the same compound, the “PAMPA (grade in words)” value (PAMPA) was “(moderate)”.
